Consider seven compounds from article PMC7033572, “Cytochrome P450-Based Drug-Drug Interactions of Vonoprazan In Vitro and In Vivo” (Frontiers in Pharmacology, 2020).

“Also recorded” adds a separate entry of the source.

By AUC(0-inf) is commonly meant total exposure, with the tail of the curve extrapolated. Read a high AUC(0-inf) as more exposure. Broadly, the AUC(0-t) is exposure summed from dosing to a finite time, without extrapolation to infinity. Low values mean less exposure, high ones more exposure. A word on the CL/F: it is the apparent clearance, not corrected for the fraction that reaches the circulation. For orientation: Cmax means the maximum level reached in the sampled fluid or tissue. The MRT inf is a mean duration of stay, worked out from the concentration-time curve. What is called MRT last is the average time that molecules of a dose stay in the body. In general, Tmax refers to the time from dosing to the highest level. As a reminder, the Vd/F is the apparent distribution volume after extravascular dosing. For orientation: half-life means how long it takes for the measured level to halve. Read a high half-life as slow loss. The IC50 is the concentration at which inhibition is half-maximal. A low value points to greater potency in that assay.

One data set can be described thus: in vivo. The source says:
The mobile phase comprising acetonitrile (A) and 0.1% formic acid water (B) was set with a 0.40-ml/min flow rate. […] MassLynx 4.1 software (Waters Corp., Milford, MA, USA) was used for data acquisition, and the UPLC-MS/MS chromatogram of blank plasma that was spiked with probe drugs and metabolites is shown below ( Figure 1 ).
Ten specific pathogen-free (SPF) grade Sprague–Dawley rats (male, 220 ± 20 g) were provided by Wenzhou Medical University Laboratory Animal Research Center. This study was carried out in accordance with the principles of the Basel Declaration and recommendations of Wenzhou Medical University Administration Committee of Experimental Animals. The protocol was approved by the Wenzhou Medical University Administration Committee of Experimental Animals (ID Number: wydw2019-650). Ten rats were randomly divided into two groups: the vonoprazan group (n = 5) and control group (n = 5). Both groups were fasted overnight before experiments but were allowed water all the time. The six probe drug mixtures and vonoprazan were dissolved in 0.5% carboxy methyl cellulose sodium (CMC-Na), respectively. The vonoprazan group was administered 5 mg/kg of vonoprazan for 14 days. The control group was administered 0.5% CMC-Na.
Next, the samples were collected into 1.5-ml centrifuge tubes and were immediately centrifuged for 10 min at 4,000 rpm speed. For every 100 µl of rat plasma was added with 200 µl of acetonitrile in 0.5 μg/ml of IS was added, followed by vortex mixing for one minute. […] In vitro DDI detection system, the pH was 7.4 and the component of buffer was consisted of 100 mM potassium phosphate.
The GraphPad (version 7.0; GraphPad Software Inc., San Diego, CA, USA) was applied to calculate IC50 values and plot plasma concentration-time curves. The pharmacokinetic parameters using noncompartmental analysis was calculated by DAS (version 3.2.8; Wenzhou Medical University, China). Statistical comparisons within groups were conducted by SPSS (version 25.0; SPSS Inc., Chicago, IL, USA), using Student's t-test.

A further data set has as its system CYP2B6. As to the kind of experiment: Reversible inhibition of bupropion metabolism by vonoprazan in rat liver microsomes (probe cocktail, UPLC-MS/MS). Conditions: pH 7.4, probe bupropion (20 μM). It counts as in vitro ADME. The protocol: (§1) The pooled rat liver microsomes (RLMs) obtained from eight rats, which were weighed and homogenized with cold […] phosphate-buffered saline (PBS), containing […]. After centrifugation for 15 min at 11,000 rpm, the supernatants were separated and transferred into new tubes for another 15-min centrifugation at 11,000 rpm. Next, ultracentrifugation was performed at […] at 4°C for 1 h., and the microsomal pellets were resuspended with cold […] PBS and stored at −80°C ([Wang et al., 2015]). The protein concentration of RLMs was determined using the Bradford Protein Assay Kit (Thermo Scientific, Waltham, MA, USA).
(§2) Next, vonoprazan was applied as the inhibitor to determine the half maximal inhibitory concentration (IC50). […]. After preincubation in a shaking water bath at 37°C for 5 min, an NADPH-regenerating system was added to initiate the reaction in a final volume of 200 μl. The reaction was performed for 30 min, and was stopped by cooling to −80°C immediately. Next, 20 μl of internal standard (IS) working solution and 200 μl of acetonitrile were added. Centrifugation was performed at 13,000 rpm for 5 min after vortexing for 1 min. The supernatant mixture (2 μl) was injected into the UPLC–MS/MS system for analysis.
(In general: Microsomes from liver hold many membrane-bound enzymes, among them those of drug oxidation.)

A further data set has as its system CYP2C9. The experiment in a line: Reversible inhibition of tolbutamide metabolism by vonoprazan in rat liver microsomes (probe cocktail, UPLC-MS/MS). It counts as in vitro ADME. As to conditions: pH 7.4, probe tolbutamide (10 μM), IC50 of vonoprazan on tolbutamide metabolism (CYP2C9), rat liver microsomes 0.5 mg/ml, n = 3. How it is done:
as §1, §2

For a further data set, the system named is CYP3A4. As to the kind of experiment: Reversible inhibition of midazolam metabolism by vonoprazan in rat liver microsomes (probe cocktail, UPLC-MS/MS). It counts as in vitro ADME. As to conditions: pH 7.4, probe midazolam (5 μM), rat liver microsomes 0.5 mg/ml, n = 3. How it is done: as §1, §2
A further data set has as its system CYP2D6. The experiment in a line: Reversible inhibition of dextromethorphan metabolism by vonoprazan in rat liver microsomes (probe cocktail, UPLC-MS/MS). Format: in vitro ADME. As to conditions: pH 7.4, probe dextromethorphan (100 μM), rat liver microsomes 0.5 mg/ml, n = 3. The protocol:
as §1, §2

For the next data set, the target named is T1, CYP1A2 (Rattus norvegicus, UniProt P04799).
T1 construct: contained 0.5 mg/ml of RLMs; from tissue; host or cells: pooled rat liver microsomes
T1 sequence (P04799 1-513): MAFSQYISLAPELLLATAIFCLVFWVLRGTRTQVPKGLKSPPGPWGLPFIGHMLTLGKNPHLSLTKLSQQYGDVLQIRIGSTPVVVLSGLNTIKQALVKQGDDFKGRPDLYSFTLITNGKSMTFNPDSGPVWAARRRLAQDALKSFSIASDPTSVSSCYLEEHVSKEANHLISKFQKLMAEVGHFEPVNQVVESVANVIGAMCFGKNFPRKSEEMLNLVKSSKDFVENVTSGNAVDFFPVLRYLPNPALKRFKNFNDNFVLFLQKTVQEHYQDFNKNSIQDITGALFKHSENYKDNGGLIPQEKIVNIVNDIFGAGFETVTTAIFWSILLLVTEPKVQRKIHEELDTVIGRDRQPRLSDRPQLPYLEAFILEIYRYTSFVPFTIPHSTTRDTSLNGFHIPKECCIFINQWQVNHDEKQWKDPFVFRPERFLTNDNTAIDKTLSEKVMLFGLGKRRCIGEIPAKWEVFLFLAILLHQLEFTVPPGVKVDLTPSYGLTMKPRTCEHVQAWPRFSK
As to the kind of experiment: Reversible inhibition of phenacetin metabolism by vonoprazan in rat liver microsomes (probe cocktail, UPLC-MS/MS). It counts as in vitro ADME. Conditions: vonoprazan 1-100 μM, phenacetin 40 μM. How it is done:
as §1, §2

Details of data set [1]: method as in Kogame et al., 2017. Conditions: rats; ref Kogame et al., 2017; cited from earlier work.
[2] abbreviates: male, Sprague-Dawley, rat, in vivo.
[3] abbreviates: male, Sprague-Dawley, rat, in vivo, po, 10 mg/kg.
Where [4] appears, read: male, Sprague-Dawley, rat, in vivo, po.
Setting [5] is: rats, Student's t-test, P < 0.05.
The mark [6] stands for this setting: rats, vonoprazan group vs control group.

Take `CC(NC(C)(C)C)C(=O)c1cccc(Cl)c1` (stereo not shown) [Bupropion]: in “in vivo” (setting [2]), the “Decrease of CLz/F by vonoprazan” value turned out to be 70.6%, the “Decrease of Vz/F by vonoprazan” value is 53.3%, the “Increase of AUC0→t compared with the control group” value (shortened to “Increase of AUC0→t”) was 2.17 fold and the “Increase of AUC0→∞ compared with the control group” value (shortened to “Increase of AUC0→∞”) is listed as 2.30 fold. The “Increase of Cmax by addition of vonoprazan” value (shortened to “Increase of Cmax”) in “in vivo” (setting [2]) is listed as 2.33 fold. In the data set “in vivo” (setting [3]), this compound showed an AUC(0-inf) of 243 ± 107 ng·h/mL, an AUC(0-t) of 242 ± 106 ng·h/mL, a CL/F of 863 mL/min/kg and a Cmax of 97.1 ± 55.5 ng/mL. In “in vivo” (setting [3]), the MRT inf was 2.78 ± 0.57 h, the MRT last amounted to 2.72 ± 0.51 h, the Tmax was 0.37 ± 0.36 h and the Vd/F turned out to be 99.1 ± 53.7 L/kg. In “in vivo” (setting [3]), this compound showed a half-life of 1.38 ± 0.25 h.

With `CCCCNC(=O)NS(=O)(=O)c1ccc(C)cc1` [Tolbutamide], in the data set “in vivo” (setting [2]), the “Increase of AUC0→t” value is 0.86 fold, the “Increase of AUC0→∞” value was 0.83 fold and the “Increase of Cmax” value was 0.67 fold. Besides, in “in vivo” (setting [4]), the CL/F was 0.167 mL/min/kg, the Tmax is 3 ± 1 h, the Vd/F stood at 0.03 ± 0.01 L/kg and the half-life is 4.99 ± 1.56 h.

Consider `CCCCNC(=O)NS(=O)(=O)c1ccc(C)cc1` [Vonoprazan + tolbutamide], for which, in “in vivo” (rat, in vivo, po), the CLz/F was found to be 0.033 ± 0.017 mL/min/kg, the Tmax worked out at 3.60 ± 1.34 h, the Vz/F turned out to be 0.0140 ± 0.0020 L/kg and the t1/2z turned out to be 4.83 ± 1.27 h.

For the compound `CNCc1cc(-c2ccccc2F)n(S(=O)(=O)c2cccnc2)c1` [vonoprazan, Vonoprazan], the IC50 at 30 min was 3.68 µM in the data set with CYP2B6, 18.3 µM in the data set on CYP2C9, […] with CYP3A4 and 3.62 µM in the data set on CYP2D6. Besides, the “Inhibition of phenacetin metabolism (CYP1A2) by vonoprazan” value on CYP1A2 is “no inhibition; also recorded: no effect”. Moreover, the “Reference maximum plasma concentration level” value in data set [1] is […].

In the case of `Cc1ncc2n1-c1ccc(Cl)cc1C(c1ccccc1F)=NC2` [Midazolam], in the data set “in vivo” (setting [3]), the AUC(0-inf) worked out at 657 ± 198 ng·h/mL, the AUC(0-t) turned out to be 625 ± 194 ng·h/mL, the CL/F is 282 mL/min/kg and the Cmax is 335 ± 191 ng/mL. Besides, in “in vivo” (setting [3]), the MRT inf was 2.34 ± 1.12 h, the MRT last is 1.9 ± 0.6 h, the Tmax was found to be 0.18 ± 0.09 h and the Vd/F came to 39.4 ± 20.4 L/kg. Besides, the half-life in the data set “in vivo” (setting [3]) was 1.85 ± 1.18 h. In the data set “in vivo” (setting [5]), the “Difference in pharmacokinetic parameters after vonoprazan administration compared with the control group” value (from here on “Difference in pharmacokinetic parameters”) was “significant differences”. For the same compound, the “Difference in pharmacokinetic parameters” value in “in vivo” (rats, Student's t-test, P < 0.05, listed as midazolam) is given as “significant”. Further, in the data set “in vivo” (setting [6]), the “Decrease of CLz/F by vonoprazan” value was determined as 54.7%, the “Increase of AUC0→t” value is 1.17 fold, the “Increase of AUC0→∞” value worked out at 1.25 fold and the “Increase of Tmax by addition of vonoprazan” value is 1.50 fold.

In “in vivo” (setting [3]), `CCOc1ccc(NC(C)=O)cc1` [Phenacetin] had an AUC(0-inf) of 5040 ng·h/mL, an AUC(0-t) of 5040 ng·h/mL, a CL/F of 37.5 mL/min/kg and a Cmax of 3870 ng/mL. Further, in the data set “in vivo” (setting [3]), the MRT inf was 1.13 ± 0.21 h, the MRT last was 1.12 ± 0.2 h, the Tmax came out at 0.3 ± 0.11 h and the Vd/F amounted to 1.97 ± 0.81 L/kg. In addition, the “Difference in pharmacokinetic parameters” value in “in vivo” (rat, in vivo) is reported as “not significantly different”.

Take `COc1ccc2c(c1)[C@]13CCCC[C@@H]1[C@H](C2)N(C)CC3` [Dextromethorphan]: in the data set “in vivo” (setting [4]), the CL/F was 532 mL/min/kg, the Tmax was found to be 0.75 ± 0.77 h, the Vd/F turned out to be 125 ± 88.5 L/kg and the half-life is 2.61 ± 1.47 h. For the same compound, the “Difference in pharmacokinetic parameters” value in the data set “in vivo” (setting [5]) is “significant differences”. Further, in the data set “in vivo” (setting [6]), the “Decrease of CLz/F by vonoprazan” value came to 61.0%, the “Increase of AUC0→t” value came to 1.52 fold, the “Increase of AUC0→∞” value came out at 1.50 fold and the “Increase of Cmax” value turned out to be 1.87 fold.
